Reference: patent publication US20130252890A1, “6,7-DIHYDRO-5H-BENZO[7]ANNULENE DERIVATIVES, PROCESS FOR PREPARATION THEREOF, PHARMACEUTICAL PREPARATIONS COMPRISING THEM, AND THE USE THEREOF FOR PRODUCTION OF MEDICAMENTS” (BAYER INTELLECTUAL PROPERTY GMBH, priority 2010, published 2013)
Where a name gives a salt, the structure may show the parent alone.

Experiments:
[1] = molecular target: T1, oestrogen receptor (ER) (Homo sapiens, UniProt P03372); assay: Anti-oestrogenic action in MVLN cells (inhibition of estradiol-induced luciferase); assay type: cell-based; settings: inhibition of estradiol-induced luciferase signal, value of Ex. 44 is a mean value, read-out: Antioestrogenic action in vitro: MVLN transactivation antagonism IC50
T1 construct: These MVLN cells express, along with the functional oestrogen receptor (ER), a reporter construct; endogenous in cells; host or cells: MVLN cells (MCF7 derivative carrying a luciferase reporter construct)
T1 sequence (P03372 1-595): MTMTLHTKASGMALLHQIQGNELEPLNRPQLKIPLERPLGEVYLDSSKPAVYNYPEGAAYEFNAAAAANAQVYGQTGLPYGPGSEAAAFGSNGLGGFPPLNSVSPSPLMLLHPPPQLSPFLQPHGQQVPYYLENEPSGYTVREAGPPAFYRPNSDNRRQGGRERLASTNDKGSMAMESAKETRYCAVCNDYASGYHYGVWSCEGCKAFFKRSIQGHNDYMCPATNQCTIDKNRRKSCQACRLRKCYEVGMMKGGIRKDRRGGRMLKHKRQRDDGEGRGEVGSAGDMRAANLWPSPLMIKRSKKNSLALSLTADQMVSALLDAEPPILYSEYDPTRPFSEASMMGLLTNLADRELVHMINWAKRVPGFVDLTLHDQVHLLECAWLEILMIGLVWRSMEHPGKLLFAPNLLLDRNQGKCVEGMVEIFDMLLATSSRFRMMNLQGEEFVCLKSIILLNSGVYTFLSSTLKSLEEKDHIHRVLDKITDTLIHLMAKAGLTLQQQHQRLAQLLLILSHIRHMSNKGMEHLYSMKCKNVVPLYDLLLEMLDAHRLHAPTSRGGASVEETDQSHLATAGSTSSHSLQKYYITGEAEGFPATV
Procedure, shortened: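 MVLN cells, MCF7 breast cancer derivatives carrying functional ER plus an ER-activated luciferase reporter, were treated with compounds in the presence of estradiol. Anti-oestrogenic activity taken as inhibition of the estradiol-induced luciferase signal.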

[2] = tested on: uterus; assay: Anti-uterus growth test in the adult rat; settings: sc, 72 h; ovariectomized adult rat, s.c. 3 days with 1.5 μg/kg/day 17β-estradiol; inhibition of uterus growth; value of 44 is a mean of two measurements; read-out: anti-oestrogenic activity in vivo in % at a dose of 0.3 mg/kg (rat)
Excerpt: The uterus of oestrogen-substituted rats can be used as a test model for detecting a direct action of substances with anti-oestrogenic properties. The parameter of oestrogenic action is estradiol-induced uterus growth in rats, which is inhibited by simultaneous administration of a substance with anti-oestrogenic action. The experimental animals (n=5-6 animals/group) were ovariectomized before the start of the test, to rule out the influence of endogenous oestrogens. After a phase of 6 to 10 days, the test substances are administered s.c. on 3 consecutive days (d1-d3) in combination with a substitution dose of 1.5 μg/kg/day 17β-estradiol. 17β-estradiol alone serves as positive control, and the excipients serve as negative control. On day 4 (d4) the animals are killed, and the uteri and vaginae are removed and weighed. The organ weights are converted to mg/100 g body weight, then the mean value and the standard deviation are calculated for each dosage. The inhibition of uterus growth induced by 17β-estradiol is shown as percentage inhibition.

[3] = tested on: ovarian estradiol synthesis; assay: Stimulation of ovarian oestrogen synthesis (HPG axis) in intact adult rats; assay type: in vivo, rat; settings: hormonally intact adult rats, daily for 10 days; quotient of peripheral estradiol values after and before treatment
Excerpt: The clinical use both of pure anti-oestrogens and of various SERMs for the treatment of premenopausal women is limited by their property of stimulating the ovaries through activation of the hypothalamic-pituitary-gonadal axis (HPG axis), which leads to the increase in peripheral estradiol levels (Palomba, S., Orio, F., Jr., Morelli, M., Russo, T., Pellicano, M., Zupi, E., Lombardi, G., Nappi, C., Panici, P. L., and Zullo, F. (2002). Raloxifene administration in premenopausal women with uterine leiomyomas: a pilot study. J Clin Endocrinol Metab 87, 3603-3608). This stimulation of the HPG axis is associated with penetration of the blood-brain barrier and penetration of the brain. To investigate the ovary-stimulating properties of the claimed pharmacological compounds, hormonally intact adult rats were treated with the substances daily for a period of 10 days. The study end point is the quotient of peripheral estradiol values after and before treatment.

SMILES | IC50 [1] [nM] | inhibition in vivo at 0.3 mg/kg [2] [%] | Stimulation of ovarian oestrogen synthesis: factor at a dose of 3 mg/kg rat [3]
CN(CCCCCCC1=C(c2cc(F)cc(F)c2)CCCc2cc(O)ccc21)CCCCS(=O)(=O)CCC(F)(F)F [Example 46, 8-(3,5-Difluorophenyl)-9-[6-(methyl{4-[(3,3,3-trifluoropropyl)sulphonyl]butyl}amino)hexyl]-6,7-dihydro-5H-benzo[7]annulen-3-ol] | 36 | 30 | –
CN(CCCCCCC1=C(c2ccc(F)cc2)CCCc2cc(O)ccc21)CCCCS(=O)(=O)CCCC(F)(F)F [Example 48, 8-(4-Fluorophenyl)-9-[6-(methyl{4-[(4,4,4-trifluorobutyl)sulphonyl]butyl}amino)hexyl]-6,7-dihydro-5H-benzo[7]annulen-3-ol] | 17 | 79 | –
CN(CCCCCCC1=C(c2cc(F)cc(F)c2)CCCc2cc(O)ccc21)CCCS(=O)(=O)CCCC(F)(F)F [Example 7, 8-(3,5-Difluorophenyl)-9-[6-(methyl{3-[(4,4,4-trifluorobutyl)sulphonyl]propyl}amino)hexyl]-6,7-dihydro-5H-benzo[7]annulen-3-ol] | 24 | 23 | –
CN(CCCCCCC1=C(c2ccc(F)c(F)c2)CCCc2cc(O)ccc21)CCCS(=O)(=O)CCCC(F)(F)F [Example 23, 8-(3,4-Difluorophenyl)-9-[6-(methyl{3-[(4,4,4-trifluorobutyl)sulphonyl]propyl}amino)hexyl]-6,7-dihydro-5H-benzo[7]annulen-3-ol] | 22 | 33 | –
CN(CCCCCCC1=C(c2cccc(F)c2)CCCc2cc(O)ccc21)CCCS(=O)(=O)CCCC(F)(F)C(F)(F)F [Example 125, 8-(3-fluorophenyl)-9-[6-(methyl{3-[(4,4,5,5,5-pentafluoropentyl)sulphonyl]propyl}amino)hexyl]-6,7-dihydro-5H-benzo[7]annulen-3-ol] | 13 | 75 | –
O=C(c1ccc(OCCN2CCCCC2)cc1)c1c(-c2ccc(O)cc2)sc2cc(O)ccc12 [Raloxifene hydrochloride, Raloxifene, reference compound] | – | – | 3.1
CN(CCCCCCC1=C(c2ccc(F)c(F)c2)CCCc2cc(O)ccc21)CCCCS(=O)(=O)CCCC(F)(F)F [Example 45, 8-(3,4-Difluorophenyl)-9-[6-(methyl{4-[(4,4,4-trifluorobutyl)sulphonyl]butyl}amino)hexyl]-6,7-dihydro-5H-benzo[7]annulen-3-ol] | 20 | 73 | –
CN(CCCCCCC1=C(c2cccc(F)c2)CCCc2cc(O)ccc21)CCCCS(=O)(=O)CCCC(F)(F)C(F)(F)F [Example 124, 8-(3-fluorophenyl)-9-[6-(methyl{4-[(4,4,5,5,5-pentafluoropentyl)sulphonyl]butyl}amino)hexyl]-6,7-dihydro-5H-benzo[7]annulen-3-ol] | 13 | 67 | 2.0
CC(C)(O)CN(CCCCCCC1=C(c2ccc(F)c(F)c2)CCCc2cc(O)ccc21)CCCS(=O)(=O)CCC(F)(F)F [Example 27, 8-(3,4-Difluorophenyl)-9-{6-[(2-hydroxy-2-methylpropyl){3-[(3,3,3-trifluoropropyl)sulphonyl]propyl}amino]hexyl}-6,7-dihydro-5H-benzo[7]annulen-3-ol] | 35 | 10 | –
CN(CCCCCCC1=C(c2ccc(F)cc2)CCCc2cc(O)ccc21)CCCS(=O)(=O)CCC(F)(F)C(F)(F)F [Example 116, 8-(4-fluorophenyl)-9-[6-(methyl{3-[(3,3,4,4,4-pentafluorobutyl)sulphonyl]propyl}amino)hexyl]-6,7-dihydro-5H-benzo[7]annulen-3-ol] | 34 | 15 | –
COCCCN(CCCCCCC1=C(c2cc(F)cc(F)c2)CCCc2cc(O)ccc21)CCCS(=O)(=O)CCCC(F)(F)C(F)(F)F [Example 16, 8-(3,5-Difluorophenyl)-9-{6-[(3-methoxypropyl){3-[(4,4,5,5,5-pentafluoropentyl)sulphonyl]propyl}amino]hexyl}-6,7-dihydro-5H-benzo[7]annulen-3-ol] | 27 | – | –
COCCCN(CCCCCCC1=C(c2ccc(F)cc2)CCCc2c1ccc(O)c2F)CCCS(=O)(=O)CCCC(F)(F)C(F)(F)F [Example 41, 4-Fluoro-8-(4-fluorophenyl)-9-{6-[(3-methoxypropyl){3-[(4,4,5,5,5-pentafluoropentyl)sulphonyl]propyl}amino]hexyl}-6,7-dihydro-5H-benzo[7]annulen-3-ol] | 42 | – | –
CN(CCCCCCC1=C(c2ccc(F)cc2F)CCCc2cc(O)ccc21)CCCS(=O)(=O)CCCC(F)(F)F [Example 134, 8-(2,4-Difluorophenyl)-9-[6-(methyl{3-[(4,4,4-trifluorobutyl)sulphonyl]propyl}amino)hexyl]-6,7-dihydro-5H-benzo[7]annulen-3-ol] | 5 | – | –
CC(C)(O)CN(CCCCCCC1=C(c2ccc(F)c(F)c2)CCCc2cc(O)ccc21)CCC[S+]([O-])CCCC(F)(F)C(F)(F)F (stereo not drawn) [Example 28, 8-(3,4-Difluorophenyl)-9-{6-[(2-hydroxy-2-methylpropyl){3-[(4,4,5,5,5-pentafluoropentyl)sulphinyl]propyl}amino]hexyl}-6,7-dihydro-5H-benzo[7]annulen-3-ol] | 9 | – | –
CN(CCCCCCC1=C(c2ccc(F)c(F)c2)CCCc2cc(O)ccc21)CCCCS(=O)(=O)CCC(F)(F)F [Example 47, 8-(3,4-Difluorophenyl)-9-[6-(methyl{4-[(3,3,3-trifluoropropyl)sulphonyl]butyl}amino)hexyl]-6,7-dihydro-5H-benzo[7]annulen-3-ol] | 26 | – | –
CN(CCCCCCC1=C(c2ccc(F)cc2)CCCc2cc(O)c(F)cc21)CCCS(=O)(=O)CCCCCC(F)(F)F [Example 140, 2-Fluoro-8-(4-fluorophenyl)-9-[6-(methyl{3-[(6,6,6-trifluorohexyl)sulphonyl]propyl}amino)hexyl]-6,7-dihydro-5H-benzo[7]annulen-3-ol] | 4 | – | –
CCN(CCCCCCC1=C(c2ccc(F)c(F)c2)CCCc2cc(O)ccc21)CCCS(=O)(=O)CCC(F)(F)F [Example 30, 8-(3,4-Difluorophenyl)-9-[6-(ethyl{3-[(3,3,3-trifluoropropyl)sulphonyl]propyl}amino)hexyl]-6,7-dihydro-5H-benzo[7]annulen-3-ol] | 88 | – | –
O=S(=O)(CCCCN(CCO)CCCCCCC1=C(c2ccc(F)cc2)CCCc2cc(O)ccc21)CCCC(F)(F)F [Example 92, 8-(4-Fluorophenyl)-9-{6-[(2-hydroxyethyl){4-[(4,4,4-trifluorobutyl)sulphonyl]butyl}amino]hexyl}-6,7-dihydro-5H-benzo[7]annulen-3-ol] | 5 | – | –
CN(CCCCCCC1=C(c2ccc(F)cc2F)CCCc2cc(O)ccc21)CCCS(=O)(=O)CCCCCC(F)(F)F [Example 135, 8-(2,4-Difluorophenyl)-9-[6-(methyl{3-[(6,6,6-trifluorohexyl)sulphonyl]propyl}amino)hexyl]-6,7-dihydro-5H-benzo[7]annulen-3-ol] | 5 | – | –
CN(CCCCCCC1=C(c2cc(F)cc(F)c2)CCCc2cc(O)ccc21)CCCCCS(=O)(=O)CCC(F)(F)F [Example 68, 8-(3,5-Difluorophenyl)-9-[6-(methyl{5-[(3,3,3-trifluoropropyl)sulphonyl]pentyl}amino)hexyl]-6,7-dihydro-5H-benzo[7]annulen-3-ol] | 106 | – | –
